Measured values: US20230099344A1, “COMPOUNDS AND METHODS FOR THE TARGETED DEGRADATION OF IRAK-4” (Arvinas Operations, Inc., priority 2021, published 2023)

Target: T1, IRAK-4 (Homo sapiens, UniProt Q9NWZ3)
T1 sequence (Q9NWZ3 1-460): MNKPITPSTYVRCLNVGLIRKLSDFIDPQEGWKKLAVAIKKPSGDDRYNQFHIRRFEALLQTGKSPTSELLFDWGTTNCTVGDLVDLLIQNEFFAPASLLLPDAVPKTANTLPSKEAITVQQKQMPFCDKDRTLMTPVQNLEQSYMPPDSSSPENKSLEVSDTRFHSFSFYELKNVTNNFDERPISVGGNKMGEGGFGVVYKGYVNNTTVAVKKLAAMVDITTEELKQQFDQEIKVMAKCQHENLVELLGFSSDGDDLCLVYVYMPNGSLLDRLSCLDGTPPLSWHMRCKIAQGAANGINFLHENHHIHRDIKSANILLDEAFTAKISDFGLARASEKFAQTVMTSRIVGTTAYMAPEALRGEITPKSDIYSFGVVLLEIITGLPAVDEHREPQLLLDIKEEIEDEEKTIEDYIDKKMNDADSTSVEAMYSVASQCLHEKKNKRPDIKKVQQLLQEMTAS
Assay: IRAK-4 ELISA, OCI-Ly10 degradation
Type: cell-based
Set-up: endogenous in cells
Settings: treated overnight; for Dmax: OCI-Ly10, OCI-Ly10 cells
Description: Reagents: Human IRAK-4 Matched Antibody Pair Kit (Abcam ab218182) and ELISA Accessory Pack (Abcam ab210905).
Cell Treatment and Lysis:
1. OCI-Ly10: 200,000 cells are seeded at 1×10^6/ml in 96-well U-bottom plates 200 ul per well, treated with compound the same day. Incubate overnight. 2. PBMC: 800,000 cells are seeded at 2×10^6/ml in 96-well U-bottom deep-well plates, 400 ul per well, treated with compound the same day. Incubate overnight.
Cell lysate is collected and analyzed by ELISA for IRAK-4 levels.

Compound	Dmax	DC50 (OCI-Ly10 cells)	OCI-LY10 Dmax (OCI-Ly10 cells)
O=C1CCC(N2C(=O)c3ccc(N4CCC([C@H](F)Cn5cc6cc(NC(=O)c7cnn8cccnc78)c(OCC7CC7)cc6n5)CC4)cc3C2=O)C(=O)N1 (stereo partly shown) [Example 171]	70 to 80%	50 to 100 nM	
O=C1CCC(N2C(=O)c3ccc(CCN4CCC(N5Cc6cc(NC(=O)c7cnn8cccnc78)c(N7CCOCC7)cc6C5=O)CC4)cc3C2=O)C(=O)N1 (stereo not shown) [Example 37]		≥ 100 nM	
COc1cc2nn(C[C@@H](F)COCC3CCN(c4ccc5c(c4)C(=O)N(C4CCC(=O)NC4=O)C5=O)CC3)cc2cc1NC(=O)c1cnn2cccnc12 (stereo partly shown) [Example 213]	< 70%	≥ 100 nM	
O=C1CCC(N2C(=O)c3ccc(CN4CCC(n5cc6cc(NC(=O)c7cnn8cccnc78)c(OCC7CC7)cc6n5)CC4)cc3C2=O)C(=O)N1 (stereo not shown) [Example 123]		≥ 100 nM	
COc1cc2nn([C@H]3CC[C@@H](N(C)C4CN(c5ccc6c(c5)C(=O)N(C5CCC(=O)NC5=O)C6=O)C4)CC3)cc2cc1NC(=O)c1cnn2cccnc12 (stereo partly shown) [Example 333]		≥ 100 nM	
COc1cc2nn(C3CCN(CC4CCN(c5ccc6c(c5)C(=O)N(C5CCC(=O)NC5=O)C6=O)CC4)C3)cc2cc1NC(=O)c1cnn2cccnc12 (stereo not shown) [Example 210]		≥ 100 nM	
O=C1CCC(N2C(=O)c3ccc(N4CC(COC[C@H](F)Cn5cc6cc(NC(=O)c7cnn8cccnc78)c(OCC7CC7)cc6n5)C4)cc3C2=O)C(=O)N1 (stereo partly shown) [Example 172]	80 to 90%	≥ 100 nM	
CC(C)Oc1cc2c(cc1NC(=O)c1cnn3cccnc13)CN(C1CCN(C3CN(c4cc5c(cc4F)C(=O)N(C4CCC(=O)NC4=O)C5=O)C3)CC1)C2=O (stereo not shown) [Example 63]	≥ 90%	10 to 50 nM	
CC(C)Oc1cc2c(cc1NC(=O)c1cnn3cccnc13)CN(CC1CN(CCc3ccc4c(c3)CN(C3CCC(=O)NC3=O)C4=O)C1)C2=O (stereo not shown) [Example 26]		≥ 100 nM	
COc1cc2nn(C3CCN(CC4CN(c5ccc6c(c5)n(C)c(=O)n6C5CCC(=O)NC5=O)C4)CC3)cc2cc1NC(=O)c1cnn2cccnc12 (stereo not shown) [Example 380]		≥ 100 nM	
COc1cc2nn(C3CCN(CC#Cc4ccc5c(c4)C(=O)N(C4CCC(=O)NC4=O)C5=O)CC3)cc2cc1NC(=O)c1cnn2cccnc12 (stereo not shown) [Example 204]	< 70%	50 to 100 nM	
O=C1CCC(N2C(=O)c3ccc(CCN4CCC(N5Cc6cc(NC(=O)c7cnn8cccnc78)c(N7CCOCC7)nc6C5=O)CC4)cc3C2=O)C(=O)N1 (stereo not shown) [Example 405]	70 to 80%	≥ 100 nM	
CC(C)Oc1cc2c(cc1NC(=O)c1cnn3cccnc13)CN(C1CCN(Cc3ccc4c(c3)CN(C3CCC(=O)NC3=O)C4=O)CC1)C2=O (stereo not shown) [Example 10]		≥ 100 nM	
COc1cc2nn(C3CCN(CC4CCN(c5ccc6c(c5)C(=O)N(C5CCC(=O)NC5=O)C6=O)CC4)CC3)cc2cc1NC(=O)c1cnn2cc(C)cnc12 (stereo not shown) [Example 140]	80 to 90%	10 to 50 nM	
O=C1CCC(N2C(=O)c3ccc(N4CC(CN5CCC(n6cc7cc(CC(=O)c8cnn9cc(Cl)cnc89)c(OCC8CC8)cc7n6)CC5)C4)cc3C2=O)C(=O)N1 (stereo not shown) [Example 164]	≥ 90%	10 to 50 nM	
O=C1CCC(NC(=O)c2ccc(N3CCC(CN4CCC(n5cc6cc(NC(=O)c7cnn8cccnc78)c(OCC7CC7)cc6n5)CC4)CC3)cc2F)C(=O)N1 (stereo not shown) [Example 290]		50 to 100 nM	D (D represents a Dmax value <70)
O=C1CCC(N2C(=O)c3ccc(C#CCN4CCC(n5cc6cc(NC(=O)c7cnn8cccnc78)c(OCC7CC7)cc6n5)CC4)cc3C2=O)C(=O)N1 (stereo not shown) [Example 178]	80 to 90%	≥ 100 nM	
COc1cc2nn([C@H]3CC[C@@H](OC4CN(c5ccc6c(c5)C(=O)N(C5CCC(=O)NC5=O)C6=O)C4)CC3)cc2cc1NC(=O)c1cnn2cccnc12 (stereo partly shown) [Example 211]		≥ 100 nM	
O=C1CCC(N2Cc3cc(C#CCN4CCC(n5cc6cc(NC(=O)c7cnn8cccnc78)c(OCC7CC7)cc6n5)CC4)ccc3C2=O)C(=O)N1 (stereo not shown) [Example 179]	< 70%	≥ 100 nM	
O=C1CCC(N2C(=O)c3ccc(N4CC(N5CCC(n6cc7cc(NC(=O)c8cnn9cccnc89)c(OCC8CC8)cc7n6)CC5)C4)cc3C2=O)C(=O)N1 (stereo not shown) [Example 163]	≥ 90%	10 to 50 nM	
O=C1CCC(N2C(=O)c3ccc(N4CCN(CCOC[C@H](F)Cn5cc6cc(NC(=O)c7cnn8cccnc78)c(OCC7CC7)cc6n5)CC4)cc3C2=O)C(=O)N1 (stereo partly shown) [Example 180]	≥ 90%	10 to 50 nM	
O=C1CCC(N2C(=O)c3ccc(CCN4CCC(n5cc6cc(NC(=O)c7cnn8cccnc78)c(OCC7CC7)cc6n5)CC4)cc3C2=O)C(=O)N1 (stereo not shown) [Example 127]	≥ 90%	10 to 50 nM	

More lines, now with the values ahead:

Dmax	DC50 (OCI-Ly10 cells)	OCI-LY10 Dmax (OCI-Ly10 cells)	Compound
≥ 90%	10 to 50 nM		O=C1CCC(NC(=O)c2ccc(N3CC(CN4CCC(n5cc6cc(NC(=O)c7cnn8cc(Cl)cnc78)c(OCC7CC7)cc6n5)CC4)C3)cc2F)C(=O)N1 (stereo not shown) [Example 299]
≥ 90%	10 to 50 nM		CC1(CN2CCC(n3cc4cc(NC(=O)c5cnn6cccnc56)c(OCC5CC5)cc4n3)CC2)CN(c2ccc3c(c2)C(=O)N(C2CCC(=O)NC2=O)C3=O)C1 (stereo not shown) [Example 168]
≥ 90%	< 10 nM		COc1cc2nn(C3CCN(CC4CCN(c5ccc6c(c5)C(=O)N(C5CCC(=O)NC5=O)C6=O)CC4)CC3)cc2cc1NC(=O)c1cnn2cccnc12 (stereo not shown) [Example 201]
≥ 90%	10 to 50 nM		O=C1CCC(NC(=O)c2ccc(N3CCC(CN4CCC(n5cc6cc(NC(=O)c7cnn8cc(Cl)cnc78)c(OCC7CC7)cc6n5)CC4)CC3)cc2F)C(=O)N1 (stereo not shown) [Example 289]
≥ 90%	10 to 50 nM		COc1cc2nn([C@H]3CCN(CC4CCN(c5ccc6c(c5)CN(C5CCC(=O)NC5=O)C6=O)CC4)C[C@@H]3F)cc2cc1NC(=O)c1cnn2cccnc12 (stereo partly shown) [Example 145]
80 to 90%	10 to 50 nM		CC(C)(O)c1cc2nn(C3CCN(CC4CN(c5ccc6c(c5)C(=O)N(C5CCC(=O)NC5=O)C6=O)C4)CC3)cc2cc1NC(=O)c1cnn2cc(Cl)cnc12 (stereo not shown) [Example 391, 6-chloro-N-(2-(1-((1-(2-(2,6-dioxopiperidin-3-yl)-1,3-dioxoisoindolin-5-yl)azetidin-3-yl)methyl)piperidin-4-yl)-6-(2-hydroxypropan-2-yl)-2H-indazol-5-yl)pyrazolo[1,5-a]pyrimidine-3-carboxamide]
≥ 90%	10 to 50 nM		O=C1CCC(N2C(=O)c3ccc(OCCOCCN4CCC(n5cc6cc(NC(=O)c7cnn8cc(Cl)cnc78)c(OCC7CC7)cc6n5)CC4)cc3C2=O)C(=O)N1 (stereo not shown) [Example 120]
≥ 90%	10 to 50 nM		O=C1CCC(N2C(=O)c3ccc(OCCOCCN4CCC(n5cc6cc(NC(=O)c7cnn8cccnc78)c(OCC7CC7)cc6n5)CC4)cc3C2=O)C(=O)N1 (stereo not shown) [Example 121]
70 to 80%	10 to 50 nM		O=C1CCC(N2C(=O)c3ccc(OCCN4CCC(n5cc6cc(NC(=O)c7cnn8cccnc78)c(OCC7CC7)cc6n5)CC4)cc3C2=O)C(=O)N1 (stereo not shown) [Example 125]
≥ 90%	< 10 nM		COc1cc2nn(C3CCN(C(C)(C)C4CN(c5ccc6c(c5)C(=O)N(C5CCC(=O)NC5=O)C6=O)C4)CC3)cc2cc1NC(=O)c1cnn2cccnc12 (stereo not shown) [Example 206]
80 to 90%	< 10 nM		O=C1CCC(N2Cc3cc(N4CCC(CN5CCC(n6cc7cc(NC(=O)c8cnn9cc(Cl)cnc89)c(OCC8CC8)cc7n6)CC5)CC4)ccc3C2=O)C(=O)N1 (stereo not shown) [Example 129]
80 to 90%	< 10 nM		O=C1CCC(N2Cc3cc(N4CCC(CN5CCC(n6cc7cc(NC(=O)c8cnn9cccnc89)c(C8CC8)cc7n6)CC5)CC4)ccc3C2=O)C(=O)N1 (stereo not shown) [Example 135]
≥ 90%	< 10 nM		O=C1CCC(N2Cc3cc(N4CCN(CCN5CCC(n6cc7cc(NC(=O)c8cnn9cccnc89)c(OCC8CC8)cc7n6)CC5)CC4)ccc3C2=O)C(=O)N1 (stereo not shown) [Example 160, N-(6-(cyclopropylmethoxy)-2-(1-(2-(4-(2-(2,6-dioxopiperidin-3-yl)-1-oxoisoindolin-5-yl)piperazin-1-yl)ethyl)piperidin-4-yl)-2H-indazol-5-yl)pyrazolo[1,5-a]pyrimidine-3-carboxamide]
≥ 90%	< 10 nM		O=C1CCC(N2Cc3cc(N4CCC(CN5CCC(n6cc7cc(NC(=O)c8cnn9cccnc89)c(OCC8CC8)cc7n6)CC5)CC4)ccc3C2=O)C(=O)N1 (stereo not shown) [Example 118, N-(6-(cyclopropylmethoxy)-2-(1-((1-(2-(2,6-dioxopiperidin-3-yl)-1-oxoisoindolin-5-yl)piperidin-4-yl)methyl)piperidin-4-yl)-2H-indazol-5-yl)pyrazolo[1,5-a]pyrimidine-3-carboxamide]
≥ 90%	< 10 nM		COc1cc2nn(C3CCN(CC4CN(c5ccc6c(c5)C(=O)N(C5CCC(=O)NC5=O)C6=O)C4)CC3)cc2cc1NC(=O)c1cnn2cc(Cl)cnc12 (stereo not shown) [Example 203]
≥ 90%	< 10 nM		CC(C)Oc1cc2c(cc1NC(=O)c1cnn3cccnc13)CN(C1CCN(CCc3ccc4c(c3)CN(C3CCC(=O)NC3=O)C4=O)CC1)C2=O (stereo not shown) [Example 8]
80 to 90%	< 10 nM		COc1cc2nn(C3CCN(C4CN(c5ccc6c(c5)C(=O)N(C5CCC(=O)NC5=O)C6=O)C4)CC3)cc2cc1NC(=O)c1cnn2cccnc12 (stereo not shown) [Example 205]
